Reference: article PMC9292375, “Structural basis of an epitope tagging system derived from Haloarcula marismortui bacteriorhodopsin I D94N and its monoclonal antibody GD‐26” (The Febs Journal, 2021)
Several values for one entry are separate records, joined by “and”; a condition that tells them apart may be missing. Equal values may be shown once. Entries after “also recorded” stand apart in the source; their conditions may differ. Values belong to the molecule of their own block, whether it stands above or below them. Where a SMILES comes first, the peptide text is derived from it.

Columns and labels:
[1] = Protease resistance of the TD tag during expression and purification; details: without protease inhibitors; tag remains attached and detectable after expression and purification from bacterial and mammalian cell systems
[2] = target: G196; set-up: method as in PMID 28266535; details: anti‐tag antibody G196; read-out: Affinity (K D); cited from earlier work
[3] = target: M2; details: read-out: Affinity (K D); anti‐tag antibody M2; cited from earlier work
[4] = target: 9E10; details: anti‐tag antibody 9E10; read-out: Affinity (K D); cited from earlier work
[5] = target: GD‐26 Fab; test: ITC titration of peptides or TD‐tagged eGFP into GD‐26 Fab; assay type: binding, mouse; details: 25 °C, Tris buffer pH 7.5, engineered synthetic peptides, single experiment (n = 1)
Method: The titration experiments were performed with a MicroCal PEAQ‐ITC Automated (Malvern Panalytical, Malvern, UK) at 25 °C. The ITC sample cell contained 200 μL of GD‐26 IgG or GD‐26 Fab in the Tris buffer (50 mM Tris, 150 mM NaCl, pH 7.5). In the syringe, 40 μL of synthetic peptides (peptide III–V) or TD‐tagged eGFP in the same Tris buffer was injected into the sample cell using 20 injections (0.4 μL for the first injection). Prior to data analysis, heats of dilution generated by injecting the peptide solution into the buffer in the sample cell were subtracted from the experimental data. The experimental raw data were analysed using the MicroCal PEAQ‐ITC Analysis software package provided with the instrument. The first data point was removed for fitting the data to a one‐set‐of‐sites model. After entering sample concentrations, the inbuilt function for fitting is operated by clicking iteration button until a good fit to the experimental data points of the isotherms is achieved and Chi‐squared is no longer decreasing. The final fitting parameters including K D, changes in enthalpy (ΔH), entropy (ΔS) and Gibb's free energy (ΔG) and binding stoichiometry were generated by the same software.

[6] = target: Nanobody ALFA; set-up: method as in PMID 31562305; details: read-out: Affinity (K D); cited from earlier work
[7] = target: 4B2; set-up: method as in PMID 24480187; details: anti‐tag antibody 4B2; read-out: Affinity (K D); cited from earlier work
[8] = target: T1, TD peptide (GTGATPADD), peptide V from the C terminus of HmBRI D94N (Haloarcula marismortui HmBRI C terminus …); test: ITC; synthetic peptide in the syringe titrated into GD-26 Fab or GD-26 IgG (10 μM) in the cell; 25 °C; 50 mM Tris, 150 mM NaCl, pH 7.5; one-set-of-sites model; details: both partners purified
T1 construct: nine residues at the C terminus of Haloarcula marismortui bacteriorhodopsin I (HmBRI); residue numbers 1-9 count on: the TD peptide; also called TD tag; wild-type TD peptide; source: synthetic peptide
T1 chain: GTGATPADD

[9] = Storage stability of GD‐26 IgG; assay type: physicochemical; details: stored at 4 °C in Tris buffer

Molecule: C[C@H](NC(=O)CNC(=O)[C@@H](NC(=O)CN)[C@@H](C)O)C(=O)N[C@H](C(=O)N1CCC[C@H]1C(=O)N[C@@H](C)C(=O)N[C@@H](CC(=O)O)C(=O)N[C@@H](CC(=O)O)C(=O)O)[C@@H](C)O [TD] (H-GTGATPADD-OH)
cellular protease resistance and proteolytic stability [1]: good cellular protease resistance and proteolytic stability

Molecule: DLVPR
Kd [2]: 1.25 nM

Molecule: DYKDDDDK [FLAG]
Kd [3]: 3 to 31 nM

Molecule: EQKLISEEDL [c‐Myc]
Kd [4]: 2.2 to 560 nM

Molecule: GTGATPA [C2, engineered TD peptide, Asp9 and Asp8 depleted]
K D [5]: complete loss of binding; also recorded: No binding

Molecule: SRLEEELRRRLTE [ALFA]
Kd [6]: 0.026 nM

Molecule: TPADD [N4, engineered TD peptide, Gly1 to Ala4 deleted]
K D [5]: completely diminished its capability to bind; also recorded: No binding

Molecule: YPYDVPDYA [HA]
Kd [7]: 1.6 nM

Kd [8]: 22.6 nM and 18.8 nM
dH [8]: -12.2 kcal/mol
stoichiometry N [8]: 2.28 sites and 2.27 sites
B1: GD-26 IgG (recombinant monoclonal antibody GD-26, mouse IgG2a) (antibody, V domains shown)
VH: QVQLRQSGPELVKPGASVKMSCRASGYTFTNYNIHWVRQRPGQGLEWIGWIYPVDGTTKYNEKFKDKTTLTSDKSSSTAYMSLSGLTSEDSAIYFCARGLDNWGQGTSVTVSS
VL: DVVLTQTPLSLSVTIGQPASISCRSSQRLLYSNGKTYLNWFQQRPGQAPKYLMFQVSKLGPGIPARFSGSGSETDFTLKISRVEAEDLGVYYCFQGTFFPHTFGGGTKLEMK
notes: PDB 7DOH); Mouse IgG2a isotype; the same light-chain plasmid as for the Fab; source: Expi293F, transient co-transfection, secreted; purified (HiTrap Protein G, Superdex 200 gel filtration); copies: 2 + 2

B2: GD‐26 IgG: recombinant monoclonal antibody, mouse IgG2a isotype, raised against HmBRI D94N (antibody, V domains shown)
VH: B1 VH
VL: B1 VL
long‐term stability on storage [9]: over a year
